Experimental data: patent US4389403A, “1-Aroyl-2-phenylamino-2-imidazolines, drugs containing these compounds, and use thereof” (BASF Aktiengesellschaft, priority 1980, dated 1983)

What was measured:
[1] = tested on: spontaneously hypertonic Okamoto rats (SH rats); test: Anti-hypertensive action, systolic blood pressure in spontaneously hypertonic rats, oral; assay type: in vivo, rat (male spontaneously hypertonic Okamoto rats); settings: oral administration; for ED20: Rattus norvegicus, dose lowering systolic pressure by 20%, 2 h after administration, read-out: Anti-hypertensive effect ED 20%; for Anti-hypertensive effect R.E. (relative effectiveness): relative to clonidine = 1.00
Description: The compounds are administered orally to groups of 4-8 male spontaneously hypertonic Okamoto rats (SH rats). Before, and two hours after, the administration, the systolic blood pressure is measured on the tail of the rat by means of a piezoelectric sensor.
The ED 20% is determined, from the dose-effect relationship and taking into account the values found with untreated control animals, as the dose which lowers the systolic pressure by 20%.

Acute toxicity (LD 50) = settings: rat, in vivo, po
Description: To determine the acute toxicity (LD 50), the compounds are administered orally to groups of 10 male Sprague-Dawley rats each weighing 150-320 g. The period of observation is 1 week.

[2] = German Published Application DAS No. 2,559,711; cited from earlier work
[3] = Narcosis-prolonging action in rats (chloral hydrate narcosis), sedative action; settings: rat, in vivo, po
Description: (§1) The time at which the righting reflex ceases to function is measured.
(§2) The reference substances were the conventional anti-hypertensive agents clonidine and benclonidine.
(§3) An undesired side-effect of clonidine is the central-suppressive (sedative) action, which was tested using, as a model, the prolongation of chloral hydrate narcosis.

[4] = tested on: chloral hydrate narcosis in Sprague-Dawley rats; test: as above; settings: for Narcosis-prolonging effect R.E. (relative effectiveness): rats, oral administration, relative to clonidine = 1.00
Description: as §1, §2, §3

[5] = compared with clonidine; DAS No. 2,559,711; cited from earlier work
[6] = DAS No. 2,559,711; cited from earlier work

Compound: Clc1cccc(Cl)c1NC1=NCCN1 [Clonidine, 2-(2',6'-dichlorophenylamino)-2-imidazoline]
- ED20 [1]: 0.0829 mg/kg
- Anti-hypertensive effect R.E. (relative effectiveness) [1]: 1.00
- LD50 at 168 h (Acute toxicity (LD 50)): 67.3 mg/kg
- blood pressure-reducing properties [2]: exhibits blood pressure-reducing properties
- ED50 [3]: 0.0565 mg/kg
- selectivity ratio [3]: 0.68
- Narcosis-prolonging effect R.E. (relative effectiveness) [4]: 1.00

Compound: O=C(c1ccccc1)N1CCN=C1Nc1c(Cl)cccc1Cl [Benclonidine, 1-benzoyl-2-(2',6'-dichlorophenylamino)-2-imidazoline]
- ED20 [1]: 0.836 mg/kg
- Anti-hypertensive effect R.E. (relative effectiveness) [1]: 0.10
- LD50 at 168 h (Acute toxicity (LD 50)): 68.1 mg/kg
- blood pressure-reducing properties [2]: exhibits blood pressure-reducing properties
- sedative side-effects [5]: lesser sedative side-effects than the parent compound clonidine
- absorption on oral administration [6]: efficiently absorbed on oral administration
- ED50 [3]: 0.948 mg/kg
- selectivity ratio [3]: 1.13
- Narcosis-prolonging effect R.E. (relative effectiveness) [4]: 0.06

Compound: O=C(c1cccnc1)N1CCN=C1Nc1c(Cl)cccc1Cl [Example 1, 1-nicotinoyl-2-(2',6'-dichlorophenylamino)-2-imidazoline]
- ED20 [1]: 0.0786 mg/kg
- Anti-hypertensive effect R.E. (relative effectiveness) [1]: 1.05
- LD50 at 168 h (Acute toxicity (LD 50)): 80 mg/kg
- ED50 [3]: 0.1 mg/kg
- selectivity ratio [3]: 1.27
- Narcosis-prolonging effect R.E. (relative effectiveness) [4]: 0.57

Compound: O=C(c1ccc2ccccc2n1)N1CCN=C1Nc1c(Cl)cccc1Cl [Example 45, 1-(quinolin-2-oyl)-2-(2',6'-dichlorophenylamino)-2-imidazoline]
- ED20 [1]: 0.0856 mg/kg
- Anti-hypertensive effect R.E. (relative effectiveness) [1]: 0.97
- LD50 at 168 h (Acute toxicity (LD 50)): 44 mg/kg
- ED50 [3]: 0.464 mg/kg
- selectivity ratio [3]: 5.42
- ratio of sedative to anti-hypertensive doses compared with clonidine or benclonidine ([4]; compared with clonidine or benclonidine): substantially more advantageous
- Narcosis-prolonging effect R.E. (relative effectiveness) [4]: 0.12
